Numbers after ± are expanded uncertainties.

Results on two compounds are retold here after the NIST ThermoML archive (doi:10.1016/j.tca.2012.05.036).

For data set [1] the following is noted: 101.33 kPa, Liquid, Vibrating tube method.
Data set [2] in a line: relative permittivity at zero frequency (dimensionless). The conditions noted are these: 101.33 kPa, Liquid, Parallel plate capacitor.
The nature of data set [3]: refractive index (Na D-line) (dimensionless). The conditions noted are these: 101.33 kPa, Liquid, Standard Abbe refractometry.

For the compound `CCCCCCCC` [octane], the mass density is given as 706.81 ± 0.32 kg/m3 in data set [1] (288.15 K); 702.77 ± 0.32 kg/m3 in data set [1] (293.15 K); 698.73 ± 0.32 kg/m3 in data set [1] (298.15 K); 694.7 ± 0.32 kg/m3 in data set [1] (303.15 K); 690.67 ± 0.32 kg/m3 in data set [1] (308.15 K). The “relative permittivity at zero frequency” value came to 1.975 ± 0.12 in data set [2] (288.15 K); 1.968 ± 0.12 in data set [2] (293.15 K); 1.961 ± 0.12 in data set [2] (298.15 K); 1.954 ± 0.12 in data set [2] (303.15 K); 1.947 ± 0.12 in data set [2] (308.15 K). Also, the refractive index in data set [3] (293.15 K) was found to be 1.3991 ± 0.0005; in data set [3] (298.15 K), 1.3967 ± 0.0005; in data set [3] (303.15 K), 1.3945 ± 0.0005.
With `CCCCCO` [pentan-1-ol], the mass density in data set [1] (288.15 K) is on record as 818.49 ± 0.31 kg/m3; in data set [1] (293.15 K), 814.82 ± 0.31 kg/m3; in data set [1] (298.15 K), 811.19 ± 0.31 kg/m3; in data set [1] (303.15 K) it was 807.5 ± 0.31 kg/m3; in data set [1] (308.15 K), 803.86 ± 0.31 kg/m3. In addition, the “relative permittivity at zero frequency” value in data set [2] (288.15 K) turned out to be 16.334 ± 0.98; in data set [2] (293.15 K), 15.736 ± 0.94; in data set [2] (298.15 K), 15.144 ± 0.91; in data set [2] (303.15 K) it was 14.565 ± 0.87; in data set [2] (308.15 K) it was 13.998 ± 0.84. The refractive index in data set [3] (293.15 K) amounted to 1.41001 ± 0.00053; in data set [3] (298.15 K) it was 1.4084 ± 0.0005; in data set [3] (303.15 K) it was 1.4065 ± 0.0005.

Usually mass density stands for mass per unit of volume. What is called refractive index is the speed of light in vacuum divided by its phase velocity in the sample.
